20 compounds from patent US9102648B1, “Bioavailable diacylhydrazine ligands for modulating the expression of exogenous genes via an ecdysone receptor complex” (Intrexon Corporation, priority 2003, dated 2015) can be followed below.

This data set addresses T1, Bombyx mori EcR (VP16 fusion, CVBE switch construct) (Bombyx mori, UniProt P49881).
T1 sequence (P49881 86-606): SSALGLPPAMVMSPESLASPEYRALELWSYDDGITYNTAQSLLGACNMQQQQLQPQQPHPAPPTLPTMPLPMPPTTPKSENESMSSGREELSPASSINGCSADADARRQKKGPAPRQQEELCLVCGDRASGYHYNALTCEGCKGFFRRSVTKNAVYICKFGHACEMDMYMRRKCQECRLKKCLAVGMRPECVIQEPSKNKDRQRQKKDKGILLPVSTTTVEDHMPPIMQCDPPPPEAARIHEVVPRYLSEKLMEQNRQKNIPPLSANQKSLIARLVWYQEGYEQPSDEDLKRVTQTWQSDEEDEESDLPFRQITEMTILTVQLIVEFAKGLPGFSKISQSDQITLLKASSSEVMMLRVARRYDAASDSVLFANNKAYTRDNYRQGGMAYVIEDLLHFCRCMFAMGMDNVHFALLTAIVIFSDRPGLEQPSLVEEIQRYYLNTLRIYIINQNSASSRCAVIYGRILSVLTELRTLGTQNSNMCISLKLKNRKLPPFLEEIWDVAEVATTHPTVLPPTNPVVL
T1 sequence (P19793 1-462 partner): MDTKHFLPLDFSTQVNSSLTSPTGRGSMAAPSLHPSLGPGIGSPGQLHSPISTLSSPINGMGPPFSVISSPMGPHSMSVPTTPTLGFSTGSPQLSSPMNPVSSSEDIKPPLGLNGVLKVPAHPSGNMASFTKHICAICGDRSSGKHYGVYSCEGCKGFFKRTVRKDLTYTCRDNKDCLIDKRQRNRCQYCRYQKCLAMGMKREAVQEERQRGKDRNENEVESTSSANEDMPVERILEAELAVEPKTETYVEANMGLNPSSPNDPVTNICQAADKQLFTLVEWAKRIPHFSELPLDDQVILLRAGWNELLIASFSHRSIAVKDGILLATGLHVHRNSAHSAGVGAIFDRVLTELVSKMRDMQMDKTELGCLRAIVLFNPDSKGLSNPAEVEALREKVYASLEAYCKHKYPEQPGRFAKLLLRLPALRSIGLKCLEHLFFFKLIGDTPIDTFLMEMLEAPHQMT
Nature of the data set: Z3 Assay (HEK-293 cells with CVBE and 6XEcRE LacZ, β-galactosidase reporter). As to conditions: for Fold Induction, Z3 Assay, 3.3 uM: 3.3 uM ligand; for Fold Induction, Z3 Assay, 3.3 uM / Fold Induction, Z3 Assay, 33 uM: ligand treated / DMSO treated cells; for Fold Induction, Z3 Assay, 3.3 uM / EC50 / Fold Induction, Z3 Assay, 33 uM: average of two wells; for Z3 assay Rel Max FI: maximum fold induction at any concentration relative to that of GS-E ligand; for Z3 assay Rel Max FI / EC50: HEK-293 Z3 cells; for EC50: read-out: Z3 assay EC50, β-galactosidase reporter; for Fold Induction, Z3 Assay, 33 uM: 33 uM ligand. The text has this:
Dr. F. Gage provided a population of stably transformed cells containing CVBE and 6XEcRE as described in Suhr, S. T., Gil, E. B., Senut M. C., Gage, F. H. (1998) Proc. Natl. Acad. Sci. USA 95, 7999-804. Human 293 kidney cells, also referred to as HEK-293 cells, were sequentially infected with retroviral vectors encoding first the switch construct CVBE, and subsequently the reporter construct 6XEcRE Lac Z. The switch construct contained the coding sequence for amino acids 26-546 from Bombyx mori EcR (BE) (Iatrou) inserted in frame and downstream of the VP16 transactivation domain (VBE). A synthetic ATG start codon was placed under the control of cytomegalovirus (CVBE) immediate early promoter and flanked by long terminal repeats (LTR). The reporter construct contained six copies of the ecdysone response element (EcRE) binding site placed upstream of LacZ and flanked on both sides with LTR sequences (6XEcRE).
Dilution cloning was used to isolate individual clones. Clones were selected using 450 ug/mL G418 and 100 ng/mL puromycin. Individual clones were evaluated based on their response in the presence and absence of test ligands.
Human 293 kidney cells stably transformed with CVBE and 6XEcRE LacZ were maintained in Minimum Essential Medium (Mediates, 10-010-CV) containing 10% FBS (Life Technologies, 26140-087), […] G418 (Mediates, 30-234-CR), and […] (Sigma, P-7255), at 37° C. in an atmosphere containing 5% CO2 and were subculture when they reached 75% confluence.
Z3 cells were seeded into 96-well tissue culture plates at a concentration of 2.5×10^3 cells per well and incubated at 37° C. in 5% CO2 for twenty-four hours. Stock solutions of ligands were prepared in DMSO. Ligand stock solutions were diluted 100 fold in media and 50 μL of this diluted ligand solution ([…]) was added to cells. The final concentration of DMSO was maintained at 0.03% in both controls and treatments.
Reporter gene expression was evaluated 48 hours after treatment of cells, β-galactosidase activity was measured using Gal Screen™ bioluminescent reporter gene assay system from Tropix (GSY1000). Fold induction activities were calculated by dividing relative light units (“RLU”) in ligand treated cells with RLU in DMSO treated cells. Luminescence was detected at room temperature using a Dynex MLX microtiter plate luminometer.
Flanking both constructs are long terminal repeats, G418 and puromycin are selectable markers, CMV is the cytomegalovirus promoter, VBE is coding sequence for amino acids 26-546 from Bombyx mori EcR inserted downstream of the VP16 transactivation domain, 6×EcRE is six copies of the ecdysone response element, lacZ encodes for the reporter enzyme β-galactosidase.
Each assay was conducted in two separate wells, and the two values were averaged. Fold inductions were calculated by dividing relative light units (“RLU”) in ligand treated cells with RLU in DMSO treated cells. EC50s were calculated from dose response data using a three-parameter logistic model.

The term EC50 denotes the concentration at which the effect is half-maximal. On to `CCc1ccc(C(=O)NN(C(=O)c2cc(F)ccc2[N+](=O)[O-])C(C)(C)C)c(F)c1` [RG-115086], for which the “Fold Induction, Z3 Assay, 3.3 uM” value was found to be 433; the “Z3 assay Rel Max FI” value worked out at 0.433; the EC50 is 692 nM.

Consider `CCc1c(OC)cccc1C(=O)NN(C(=O)c1cc2ccccc2n1C)C(C)(C)C` [RG-115106, N′-2-Ethyl-3-methoxybenzoyl-N-t-butyl-N-(N-methylindole-2-carbonyl) hydrazide], for which the “Fold Induction, Z3 Assay, 3.3 uM” value was 68; the “Z3 assay Rel Max FI” value is listed as 0.457; the EC50 was found to be 2570 nM.

With `CCc1ccc(C(=O)NN(C(=O)c2cc(C)nc(Cl)c2)C(C)(C)C)c(F)c1` [RG-115112], the “Fold Induction, Z3 Assay, 3.3 uM” value is 618; the “Z3 assay Rel Max FI” value amounted to 0.618; the EC50 was 309 nM.

As to `CCc1ccc(C(=O)NN(C(=O)c2cc(Cl)nc(Cl)c2)C(C)(C)C)c(F)c1` [RG-115128], the “Fold Induction, Z3 Assay, 3.3 uM” value was 110; the “Z3 assay Rel Max FI” value is on record as 0.538; the EC50 came to 245 nM.

Take `CCc1ccc(C(=O)NN(C(=O)c2cccc([N+](=O)[O-])c2)C(C)(C)C)c(F)c1` [RG-115167]: the “Fold Induction, Z3 Assay, 3.3 uM” value is reported as 73; the “Z3 assay Rel Max FI” value was determined as 0.533; the EC50 was found to be 240 nM.

As to `Cc1cc(C)cc(C(=O)N(NC(=O)c2ccc3c(c2)OC(F)(F)O3)C(C)(C)C)c1` [RG-115256], the “Fold Induction, Z3 Assay, 3.3 uM” value amounted to 647; the “Z3 assay Rel Max FI” value is recorded as 0.527; the EC50 came out at 692 nM.

Consider `Cc1c(O)cccc1C(=O)NN(C(=O)c1cc(Cl)nc(Cl)c1)C(C)(C)C` [RG-115261], for which the “Fold Induction, Z3 Assay, 3.3 uM” value amounted to 31; the “Z3 assay Rel Max FI” value is listed as 0.498; the EC50 came to 29500 nM.

Regarding `CCc1ccc(C(=O)NN(C(=O)c2cccc(OC)c2)C(C)(C)C)c(F)c1` [RG-115269], the “Fold Induction, Z3 Assay, 3.3 uM” value was 112; the “Z3 assay Rel Max FI” value stood at 0.552; the EC50 worked out at 437 nM.

With `COCc1c(OC)cccc1C(=O)NN(C(=O)c1cc(Cl)cc(Cl)c1)C(C)(C)C` [RG-115306], the “Fold Induction, Z3 Assay, 3.3 uM” value turned out to be 5; the “Z3 assay Rel Max FI” value stood at 0.424; the EC50 was found to be 3470 nM.

With `CC(C)(C)N(NC(=O)c1ccc2c(c1)OC(F)(F)O2)C(=O)c1ccccc1[N+](=O)[O-]` [RG-115352], the “Fold Induction, Z3 Assay, 3.3 uM” value came to 7; the “Z3 assay Rel Max FI” value is 0.265; the EC50 stood at 45700 nM.

Consider `CCc1ccc(C(=O)NN(C(=O)c2ccccc2OC)C(C)(C)C)c(F)c1` [RG-115422], for which the “Fold Induction, Z3 Assay, 3.3 uM” value came out at 204; the “Z3 assay Rel Max FI” value was 0.769; the EC50 is 398 nM.

As for `COc1cc(C(=O)N(NC(=O)c2ccc3c(c2Cl)COCO3)C(C)(C)C)cc(OC)c1C` [RG-115441], the “Fold Induction, Z3 Assay, 3.3 uM” value came to 118; the “Z3 assay Rel Max FI” value was determined as 0.759; the EC50 was 126 nM.

Take `CCc1c(OC)cccc1C(=O)NN(C(=O)c1cccc2c1OCO2)C(C)(C)C` [RG-115496]: the “Fold Induction, Z3 Assay, 3.3 uM” value amounted to 874; the “Z3 assay Rel Max FI” value amounted to 0.878; the EC50 stood at 1180 nM.

For the compound `COc1cc(C(=O)N(NC(=O)c2cccc(OC(C)=O)c2C)C(C)(C)C)cc(OC)c1C` [RG-115557], the “Fold Induction, Z3 Assay, 3.3 uM” value came out at 426; the “Z3 assay Rel Max FI” value worked out at 0.566; the EC50 came to 1700 nM.

For the compound `CCc1c(C(=O)NN(C(=O)c2ccc(C)cc2)C(C)(C)C)ccc2c1OCOC2` [RG-115611], the “Fold Induction, Z3 Assay, 3.3 uM” value turned out to be 745; the “Z3 assay Rel Max FI” value was found to be 0.703; the EC50 was 1580 nM.

`Cc1cc(C)cc(C(=O)N(NC(=O)c2ccc3cc[nH]c3c2)C(C)(C)C)c1` [RG-115689]: the “Fold Induction, Z3 Assay, 3.3 uM” value stood at 13; the “Z3 assay Rel Max FI” value worked out at 0.411; the half-maximal effective concentration (EC50) came to 100000 nM.

In the case of `CCc1c(OC)cccc1C(=O)NN(C(=O)c1ccc(C(=O)OC)cn1)C(C)(C)C` [RG-115717], the “Fold Induction, Z3 Assay, 33 uM” value is reported as 9.

As for `CCc1c(OC)cccc1C(=O)NN(C(=O)c1cc(C)n(-c2ccccc2)n1)C(C)(C)C` [RG-115721], the “Fold Induction, Z3 Assay, 33 uM” value worked out at 2.

`CCc1c(OC)cccc1C(=O)NN(C(=O)c1nn(C(c2ccccc2)(c2ccccc2)c2ccccc2)c2ccccc12)C(C)(C)C` [RG-115722]: the “Fold Induction, Z3 Assay, 33 uM” value is 1.

Consider `CCc1c(OC)cccc1C(=O)NN(C(=O)c1n[nH]c2ccccc12)C(C)(C)C` [RG-115723, 1H-Indazole-3-carboxylic acid N-tert-butyl-N′-(2-ethyl-3-methoxy-benzoyl)-hydrazide], for which, where the note is “HEK293, read-out: Fold Induction, Z3 Assay, 33 uM”, the fold induction at 33 µM stood at 17.
